Earlier results as cited in patent publication US6380175B1, “Method for enhancement of delivery of THC by the administration of its prodrugs via the nasal route” (New Millennium Pharmaceutical Research, Inc., priority 1999, dated 2002).

Settings: room temperature

SMILES: CCCCCc1cc(O)c2c(c1)OC(C)(C)C1CCC(C)=CC21 (stereo not shown) [THC, Δ-9-tetrahydrocannabinol]
- aqueous solubility: very poor aqueous solubility
